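How tested: cells in 96-well plates exposed to compound for 48 hours at five concentrations. GI50: concentration for 50% inhibition of growth. TGI: total growth inhibition.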
What was measured:
Test in all cases: inhibition of tumour cell growth, NCI panel, 48 h
[1] = tested on: MALME-3M melanoma
[2] = tested on: M14 melanoma
[3] = tested on: PC-3 prostate
[4] = tested on: CCRF-CEM leukemia
[5] = tested on: EKVX NSCLC
[6] = tested on: SF-295 CNS
[7] = tested on: A498 renal
[8] = tested on: SK-MEL-28 melanoma
[9] = tested on: HS 578T breast
[10] = tested on: OVCAR-3 ovarian

Compound	TGI [1]	TGI [2]	TGI [3]	TGI [4]	TGI [5]	TGI [6]	TGI [7]	TGI [8]	TGI [9]	TGI [10]	GI50 [1]	GI50 [2]	GI50 [3]	GI50 [4]	GI50 [5]	GI50 [6]	GI50 [7]	GI50 [8]	GI50 [9]	GI50 [10]
COc1ccc(C2C=C(c3ccc(C)cc3)N(c3ccc(OC)cc3[N+](=O)[O-])C3C(=O)OC(=O)C23)c(OC)c1 (stereo not given)	38.5 µM	> 100 µM	> 100 µM	> 100 µM	> 100 µM	> 100 µM	> 100 µM	> 100 µM	57.6 µM	59 µM	–	–	–	–	–	–	–	–	–	–
CC1(C)N=C(N)N=C(N)N1c1cccc(Cl)c1	> 100 µM	> 100 µM	> 100 µM	> 100 µM	> 100 µM	> 100 µM	> 100 µM	> 100 µM	> 100 µM	> 100 µM	–	–	–	–	–	–	–	–	–	–
CO[P@@]1(=O)O[C@@H](c2ccccc2)[C@H](O)[C@]1(O)c1ccccc1	> 100 µM	> 100 µM	> 100 µM	> 100 µM	60.4 µM	> 100 µM	> 100 µM	> 100 µM	> 100 µM	> 100 µM	–	–	–	–	–	–	–	–	–	–
CC(=O)Oc1ccn2nc(C)c(Br)c2c1	> 100 µM	> 100 µM	> 86.5 µM	> 100 µM	> 100 µM	> 100 µM	> 100 µM	> 100 µM	> 100 µM	> 100 µM	–	–	–	–	–	–	–	–	–	–
CCC1([N+](=O)[O-])CN(N=O)C1	> 100 µM	> 100 µM	> 100 µM	> 100 µM	> 100 µM	> 100 µM	> 100 µM	> 100 µM	> 100 µM	> 100 µM	–	–	–	–	–	–	–	–	–	–
O=C1c2cc3c(cc2CC12Cc1ccc4c(c1C2=O)CCC4)CCC3 (stereo not given)	> 100 µM	> 100 µM	> 100 µM	> 100 µM	> 100 µM	> 100 µM	> 100 µM	> 100 µM	> 100 µM	> 100 µM	–	–	–	–	–	–	–	–	–	–
O=c1c2cc([N+](=O)[O-])ccc2oc2nc3n(c(=O)c12)CCCS3	> 100 µM	> 100 µM	> 100 µM	> 100 µM	> 100 µM	> 100 µM	> 100 µM	> 100 µM	> 100 µM	> 100 µM	–	–	–	–	–	–	–	–	–	–
CSc1nc(Cl)c2c(n1)Sc1nc3ccccc3n1C2O (stereo not given)	> 67.3 µM	> 100 µM	> 100 µM	24.6 µM	> 100 µM	> 100 µM	> 100 µM	> 100 µM	> 68.8 µM	> 26.5 µM	–	–	–	–	–	–	–	–	–	–
CCN(CC)CCCCNc1c2ccc(Cl)cc2nc2ccc(OC)cc12	3.65 µM	2.58 µM	2.74 µM	5.3 µM	3.98 µM	2.47 µM	2.52 µM	3.2 µM	4.76 µM	2.99 µM	1.54 µM	1.15 µM	0.482 µM	0.524 µM	0.608 µM	0.717 µM	1.21 µM	1.71 µM	1.83 µM	0.501 µM
CC1=NN2C(=N)/C(=C/c3ccc(F)cc3)C(=O)N=C2S1	> 100 µM	> 100 µM	> 100 µM	> 100 µM	> 100 µM	> 100 µM	> 100 µM	> 100 µM	> 100 µM	> 100 µM	–	–	–	–	–	–	–	–	–	–
O=C(NC(C(F)(F)F)(C(F)(F)F)P(=O)(Cc1ccccc1)Cc1ccccc1)C(C(F)(F)F)C(F)(F)F	47.1 µM	34.8 µM	49 µM	> 100 µM	58.9 µM	44.6 µM	32.3 µM	53.1 µM	> 100 µM	> 100 µM	–	–	–	–	–	–	–	–	–	–
CC(C)=CCc1c(O)cc2oc(-c3ccc(O)cc3O)cc(=O)c2c1O	53.7 µM	> 77.9 µM	98.2 µM	28.2 µM	> 100 µM	> 100 µM	> 100 µM	87.8 µM	> 94 µM	51.5 µM	–	–	–	–	–	–	–	–	–	–
CS(=O)(=O)Nc1ccc2ccccc2c1	> 100 µM	> 100 µM	> 100 µM	> 100 µM	> 100 µM	> 100 µM	> 100 µM	> 100 µM	> 100 µM	> 100 µM	–	–	–	–	–	–	–	–	–	–
NC(=O)C1CCN(Cc2c(Cl)c(Cl)c(CN3CCC(C(N)=O)CC3)c(Cl)c2Cl)CC1	> 100 µM	> 100 µM	> 100 µM	> 100 µM	> 100 µM	75.3 µM	90.6 µM	> 100 µM	> 100 µM	> 100 µM	–	–	–	–	–	–	–	–	–	–
CC/C=N\N1C(N)=C(C#N)C(C#N)(C#N)C1CC (stereo not given)	> 100 µM	> 100 µM	> 100 µM	> 100 µM	> 100 µM	> 100 µM	> 100 µM	> 100 µM	> 100 µM	> 100 µM	–	–	–	–	–	–	–	–	–	–
COc1ccc(-c2cc3cc(Cl)cc(Cl)c3oc2=O)cc1OC	> 100 µM	> 100 µM	> 100 µM	> 100 µM	> 100 µM	> 100 µM	> 100 µM	> 100 µM	76.1 µM	> 100 µM	–	–	–	–	–	–	–	–	–	–
CN(C)CCNCCCNc1c2ccccc2nc2cccc([N+](=O)[O-])c12	0.104 µM	0.0654 µM	0.0609 µM	< 0.0207 µM	0.0617 µM	0.0741 µM	0.0588 µM	0.442 µM	0.384 µM	0.0466 µM	–	–	–	–	–	–	–	–	–	–
